Results from patent publication US10221426B2, “Constitutively active PYR/PYL receptor proteins for improving plant stress tolerance” (The Regents of the University of California, priority 2009, dated 2019).

System: Arabidopsis seeds
Assay: Seed germination inhibition
Assay type: in vivo
Settings: for amount required to ensure 100% inhibition of germination: scored 3 days post-imbibition, dose curve analyses
Description: FIG. 1. Pyrabactin is a seed selective ABA agonist. (A) Structures of molecules described in this study. (B) Pyrabactin activity is suppressed by abi1-1. Seeds of the genotype shown at top were imbibed on media containing 25 μM pyrabactin and scored for germination 4 days after stratification. Shown at bottom are IC50 values for pyrabactin's germination effect on the genotypes characterized. (C) Microarray comparison of pyrabactin and ABA treatments in seeds. The Y-axis plots the log2 transformed value for a probe's response to 25 μM pyrabactin (relative to untreated control) and the X-axis a probe's response to 1 μM ABA. […] (D) Microarray comparison of cycloheximide and ABA responses in seeds. […] (E) Microarray comparison of pyrabactin and ABA responses in seedlings. Seven-day old seedlings were transferred to 10 μM ABA or 50 μM pyrabactin containing plates for 24 hours and then mRNA samples profiled. Inset in each scatter plot is the Pearson correlation coefficient for each comparison. Detailed microarray methods are described in the Examples section.
FIG. 2. PYR1 encodes an ABA responsive START-domain protein. (A) Pyr1 alleles. Shown are the allele names, strain names (in parentheses) and amino acid changes caused by the Pyr1 mutant alleles identified by screening for pyrabactin resistant mutations. (B) Pictographic representation of Pyr1 and Pyl1-Pyl4 expression values housed in public microarray databases. The heatmap shown at top right is for the first upper three panels and the bottom heatmap for the guard cell data. Plots were made using the eFP browser (D. Winter et al., PLoS ONE 2, e718 (2007)). (C) 35S::GFP-PYR1 complements pyr1-1. Seeds of the genotypes shown were stratified 4 days on 25 μM pyrabactin and then germinated at RT, 90% RH for 3 days in darkness. […] (D) Pyr/Pyls are required for normal ABA-induced gene expression in seedlings. Shown are qRT-PCR results for the ABA-responsive gene RD29. L, Ler; C, Col; and Q, quadruple mutant. (E) Pyr/Pyl genes are required for normal ABA-induced stress-induced gene expression in seedlings. Shown are qRT-PCR results for two ABA-responsive taqman probes, as described in the Examples section. L=Ler, C=Col, Q=quadruple mutant.
As part of an earlier effort, we identified a germination inhibitor named pyrabactin (Y. Zhao et al., Nat Chem Biol 3, 716 (2007)). […] To test this hypothesis, we examined the pyrabactin sensitivity of mutant lines with altered ABA signaling, biosynthesis or gibberellic acid (GA) perception.
We next performed microarray experiments to evaluate the similarity of the transcriptional responses induced by ABA and pyrabactin treatments. For microarray, tissue was prepared and RNA extracted from Columbia wild type seeds sown on 0.5×MS media (˜2500 seeds per 150 mm plate) containing either 1 μM ABA, 25 μM pyrabactin, 25 μM 2,4-Dinitrophenol (DNP), 1 μM cycloheximide, 2 μM methotrexate or 1% DMSO control plates (all chemicals are dissolved in DMSO). The concentrations utilized for these experiments were normalized for germination inhibition activity by dose curve analyses, i.e. the amount of both compounds required to ensure 100% inhibition of germination when scored 3 days post-imbibition. ABA (±stereoisomers), DNP, cycloheximide and methotrexate were purchased from Sigma Aldrich. Seeds were stratified for 4 days and then incubated in the dark at room temperature for 24 hours. […]

Structure (SMILES)	amount required to ensure 100% inhibition of germination [µM]	effect on germination (in vivo)	germination of Columbia wild type seeds (stratified 4 days on 25 μM pyrabactin, germinated at RT, 90% RH for 3 days in darkness)
CC1=CC(=O)CC(C)(C)[C@@]1(O)/C=C/C(C)=C\C(=O)O [ABA, Abscisic acid]	1	–	–
O=S(=O)(NCc1ccccn1)c1ccc(Br)c2ccccc12 [pyrabactin]	25	inhibits germination	unable to germinate
